Source: patent US7994140B2, “Classes of compounds that interact with GPCRs” (Alchemia Limited, priority 2002, dated 2011)

Assays:
MC4 = biological target: T1, MC4 (Homo sapiens, UniProt P32245); experiment: GPCR radioligand binding (RLB) assay, melanocortin MC4, [125I]NDP-αMSH; details: 10 micromolar compound; recombinant human receptor membranes (HEK 293)
T1 construct: purchased Perkin Elmer BioSignal; host or cells: HEK 293
Method in brief: (§1)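 Competition binding against radioligand ([125I]NDP-αMSH for MC4, [125I]SST-14 for SST5) on membranes of HEK 293 cells carrying the human receptor; buffer and incubation time optimized per receptor. Filtration through 0.5% PEI-treated glass fiber, washing, then scintillation counting.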

SST5 = biological target: T2, SST5 (Homo sapiens, UniProt P35346); experiment: GPCR radioligand binding (RLB) assay, somatostatin SST5, [125I]SST-14; details: 10 micromolar compound; recombinant human receptor membranes (HEK 293)
T2 construct: purchased Perkin Elmer BioSignal; host or cells: HEK 293
Method in brief: as §1

T1 sequence (P32245 whole entry): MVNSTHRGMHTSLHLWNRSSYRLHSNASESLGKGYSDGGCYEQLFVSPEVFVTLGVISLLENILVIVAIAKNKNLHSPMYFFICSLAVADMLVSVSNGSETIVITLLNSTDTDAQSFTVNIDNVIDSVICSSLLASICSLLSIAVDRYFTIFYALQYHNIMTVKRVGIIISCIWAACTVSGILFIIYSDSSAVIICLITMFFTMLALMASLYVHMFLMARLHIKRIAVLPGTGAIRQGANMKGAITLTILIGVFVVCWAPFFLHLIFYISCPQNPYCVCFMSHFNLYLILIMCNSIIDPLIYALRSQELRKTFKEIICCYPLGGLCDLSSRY
T2 sequence (P35346 whole entry): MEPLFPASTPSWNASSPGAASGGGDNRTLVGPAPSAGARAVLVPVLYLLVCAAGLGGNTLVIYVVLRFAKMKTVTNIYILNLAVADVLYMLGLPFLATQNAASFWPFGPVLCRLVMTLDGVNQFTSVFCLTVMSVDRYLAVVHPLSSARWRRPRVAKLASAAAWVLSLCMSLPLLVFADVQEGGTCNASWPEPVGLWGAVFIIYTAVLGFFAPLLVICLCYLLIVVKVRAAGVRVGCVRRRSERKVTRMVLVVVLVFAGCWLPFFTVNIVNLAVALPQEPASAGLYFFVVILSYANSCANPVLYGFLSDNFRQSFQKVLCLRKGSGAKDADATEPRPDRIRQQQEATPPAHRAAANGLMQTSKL

SMILES | MC4 inhibition at 10 micromolar (MC4) | SST5 inhibition at 10 micromolar (SST5)
COC[C@H]1OC(OCc2ccc(Cl)cc2)[C@H](NC(=O)CCCNC(=N)N)[C@@H](OCc2ccc3ccccc3c2)[C@@H]1O (some centres unmarked) [Compound 15] | + (Indicates inhibition greater than . . . 50%) | + (Indicates inhibition greater than . . . 50%)
COC[C@H]1OC(OCc2ccc(-c3ccccc3)cc2)[C@H](NC(=O)CCCN)[C@@H](OCc2ccc(-c3ccccc3)cc2)[C@@H]1O (some centres unmarked) [Compound 28] | + (Indicates inhibition greater than . . . 50%) | + (Indicates inhibition greater than . . . 50%)
COC[C@H]1OC(OCc2ccc(-c3ccccc3)cc2)[C@H](NC(=O)CCCNC(=N)N)[C@@H](OCc2ccc(-c3ccccc3)cc2)[C@@H]1O (some centres unmarked) [Compound 29] | + (Indicates inhibition greater than . . . 50%) | + (Indicates inhibition greater than . . . 50%)
COC[C@H]1OC(OCc2ccc(-c3ccccc3)cc2)[C@H](NC(=O)CCCNC(=N)N)[C@@H](OCc2ccc3ccccc3c2)[C@@H]1O (some centres unmarked) [Compound 30] | + (Indicates inhibition greater than . . . 50%) | + (Indicates inhibition greater than . . . 50%)
COC[C@H]1OC(OCc2ccc(-c3ccccc3)cc2)[C@H](NC(=O)CCNC(=N)N)[C@@H](OCc2ccc(Cl)cc2)[C@@H]1O (some centres unmarked) [Compound 32] | + (Indicates inhibition greater than . . . 50%) | + (Indicates inhibition greater than . . . 50%)
COC[C@H]1OC(OCc2ccc(-c3ccccc3)cc2)[C@H](NC(=O)CCCN)[C@@H](OCc2ccc(Cl)cc2)[C@@H]1O (some centres unmarked) [Compound 33] | + (Indicates inhibition greater than . . . 50%) | + (Indicates inhibition greater than . . . 50%)
COC[C@H]1OC(OCc2ccc(-c3ccccc3)cc2)[C@H](NC(=O)CCCNC(=N)N)[C@@H](OCc2ccc(Cl)cc2)[C@@H]1O (some centres unmarked) [Compound 34] | + (Indicates inhibition greater than . . . 50%) | + (Indicates inhibition greater than . . . 50%)
COC[C@H]1OC(OCc2ccc3ccccc3c2)[C@H](NC(=O)CNC(=N)N)[C@@H](OCc2ccc(-c3ccccc3)cc2)[C@@H]1O (some centres unmarked) [Compound 35] | + (Indicates inhibition greater than . . . 50%) | + (Indicates inhibition greater than . . . 50%)
COC[C@H]1OC(OCc2ccc3ccccc3c2)[C@H](NC(=O)CCNC(=N)N)[C@@H](OCc2ccc(-c3ccccc3)cc2)[C@@H]1O (some centres unmarked) [Compound 36] | + (Indicates inhibition greater than . . . 50%) | + (Indicates inhibition greater than . . . 50%)
COC[C@H]1OC(OCc2ccc3ccccc3c2)[C@H](NC(=O)CCCN)[C@@H](OCc2ccc(-c3ccccc3)cc2)[C@@H]1O (some centres unmarked) [Compound 37] | + (Indicates inhibition greater than . . . 50%) | + (Indicates inhibition greater than . . . 50%)
COC[C@H]1OC(OCc2ccc3ccccc3c2)[C@H](NC(=O)CCNC(=N)N)[C@@H](OCc2ccc3ccccc3c2)[C@@H]1O (some centres unmarked) [Compound 38] | + (Indicates inhibition greater than . . . 50%) | + (Indicates inhibition greater than . . . 50%)
COC[C@H]1OC(OCc2ccc3ccccc3c2)[C@H](NC(=O)CCCN)[C@@H](OCc2ccc3ccccc3c2)[C@@H]1O (some centres unmarked) [Compound 39] | + (Indicates inhibition greater than . . . 50%) | + (Indicates inhibition greater than . . . 50%)
COC[C@H]1OC(OCc2ccc3ccccc3c2)[C@H](NC(=O)CCCNC(=N)N)[C@@H](OCc2ccc3ccccc3c2)[C@@H]1O (some centres unmarked) [Compound 40] | + (Indicates inhibition greater than . . . 50%) | + (Indicates inhibition greater than . . . 50%)
COC[C@H]1OC(OCc2ccc3ccccc3c2)[C@H](NC(=O)CCCNC(=N)N)[C@@H](OCc2ccc(Cl)cc2)[C@@H]1O (some centres unmarked) [Compound 43] | + (Indicates inhibition greater than . . . 50%) | + (Indicates inhibition greater than . . . 50%)
COC[C@H]1OC(OCc2ccc(Cl)cc2)[C@H](NC(=O)CCCNC(=N)N)[C@@H](OCc2ccc(-c3ccccc3)cc2)[C@@H]1O (some centres unmarked) [Compound 45] | + (Indicates inhibition greater than . . . 50%) | + (Indicates inhibition greater than . . . 50%)
COC[C@H]1OC(OCc2ccc(Cl)cc2)[C@H](NC(=O)CCCN)[C@@H](OCc2ccc3ccccc3c2)[C@@H]1O (some centres unmarked) [Compound 46] | + (Indicates inhibition greater than . . . 50%) | + (Indicates inhibition greater than . . . 50%)
COC[C@H]1OC(OCCc2ccccc2)[C@H](NC(=O)CCCNC(=N)N)[C@@H](OCc2ccc(-c3ccccc3)cc2)[C@@H]1O (some centres unmarked) [Compound 49] | + (Indicates inhibition greater than . . . 50%) | + (Indicates inhibition greater than . . . 50%)
COC[C@H]1OC(OCc2ccc(-c3ccccc3)cc2)[C@H](NC(=O)CCCN)[C@@H](OCc2ccc(-c3ccccc3)cc2)[C@@H]1O (some centres unmarked) [Compound 53] | + (Indicates inhibition greater than . . . 50%) | + (Indicates inhibition greater than . . . 50%)
CO[C@H]1[C@H](O)[C@@H](COCc2ccc(-c3ccccc3)cc2)OC(OCc2ccc(-c3ccccc3)cc2)[C@@H]1NC(=O)CNC(=N)N (some centres unmarked) [Compound 56] | + (Indicates inhibition greater than . . . 50%) | + (Indicates inhibition greater than . . . 50%)
CO[C@H]1[C@H](O)[C@@H](COCc2ccc(-c3ccccc3)cc2)OC(OCc2ccc(-c3ccccc3)cc2)[C@@H]1NC(=O)CCNC(=N)N (some centres unmarked) [Compound 57] | + (Indicates inhibition greater than . . . 50%) | + (Indicates inhibition greater than . . . 50%)
COC1C(O)C(COCc2ccc3ccccc3c2)OC(OCc2ccc(-c3ccccc3)cc2)C1NC(=O)CCCN (centres unmarked) [Compound 61] | + (Indicates inhibition greater than . . . 50%) | + (Indicates inhibition greater than . . . 50%)
COC1C(O)C(COCc2ccc(-c3ccccc3)cc2)OC(OCc2ccc3ccccc3c2)C1NC(=O)CCCN (centres unmarked) [Compound 69] | + (Indicates inhibition greater than . . . 50%) | + (Indicates inhibition greater than . . . 50%)
COC1C(O)C(COCc2ccc3ccccc3c2)OC(OCc2ccc3ccccc3c2)C1NC(=O)CCCN (centres unmarked) [Compound 73] | + (Indicates inhibition greater than . . . 50%) | + (Indicates inhibition greater than . . . 50%)
COC1C(O)C(COCc2ccc(Cl)cc2)OC(OCc2ccc3ccccc3c2)C1NC(=O)CCCN (centres unmarked) [Compound 77] | + (Indicates inhibition greater than . . . 50%) | + (Indicates inhibition greater than . . . 50%)
COC1C(O)C(COCc2ccc3ccccc3c2)OC(OCc2ccccc2)C1NC(=O)CNC(=N)N (centres unmarked) [Compound 80] | + (Indicates inhibition greater than . . . 50%) | + (Indicates inhibition greater than . . . 50%)
